{
  "source": "paper PMC7413254",
  "about": "(Nature Communications, 2020)",
  "key": {"[1]": {"test_system": "non-expressing oocytes", "test": "cells", "assay_type": "cell-based, Xenopus laevis", "conditions": "Xenopus laevis, total [3H]CQ transport; for inhibition at 500 µM: [test solute] = 0.5 mM; for inhibition at 1000 µM: [test solute] = 1 mM; for inhibition at 2000 µM: [test solute] = 2 mM", "outline": "(§1)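 Inward transport into oocyte cytosol from pH 5.5 medium models PfCRT efflux from the acidic digestive vacuole. Incubation 1.5 h, 27.5 °C; termination by ice-cold washes; lysate radioactivity counted.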"}, "[2]": {"biological_target": "PfCRT^3D7 (Plasmodium falciparum, UniProt Q8IBZ9)", "sequence (Q8IBZ9 59-398)": "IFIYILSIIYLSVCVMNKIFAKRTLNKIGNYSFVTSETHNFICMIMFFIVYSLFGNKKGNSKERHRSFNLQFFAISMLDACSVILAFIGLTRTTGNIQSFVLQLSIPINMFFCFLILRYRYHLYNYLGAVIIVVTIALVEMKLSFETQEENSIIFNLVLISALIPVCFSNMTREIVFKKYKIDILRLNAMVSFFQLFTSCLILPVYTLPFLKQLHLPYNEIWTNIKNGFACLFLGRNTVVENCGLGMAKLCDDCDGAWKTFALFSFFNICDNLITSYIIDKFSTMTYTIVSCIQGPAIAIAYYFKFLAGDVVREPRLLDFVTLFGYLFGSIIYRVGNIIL", "test": "cell-based", "assay_type": "cell-based", "conditions": "total [3H]CQ transport; for inhibition at 500 µM: [test solute] = 0.5 mM; for inhibition at 1000 µM: [test solute] = 1 mM; for inhibition at 2000 µM: [test solute] = 2 mM", "outline": "as §1"}, "[3]": {"biological_target": "PfCRT^Dd2 (Plasmodium falciparum, UniProt Q9N623, A220S/I356T/K76T/M74I/N326S/N75E/Q271E/R371I)", "sequence (Q9N623 whole entry A220S/I356T/K76T/M74I/N326S/N75E/Q271E/R371I)": "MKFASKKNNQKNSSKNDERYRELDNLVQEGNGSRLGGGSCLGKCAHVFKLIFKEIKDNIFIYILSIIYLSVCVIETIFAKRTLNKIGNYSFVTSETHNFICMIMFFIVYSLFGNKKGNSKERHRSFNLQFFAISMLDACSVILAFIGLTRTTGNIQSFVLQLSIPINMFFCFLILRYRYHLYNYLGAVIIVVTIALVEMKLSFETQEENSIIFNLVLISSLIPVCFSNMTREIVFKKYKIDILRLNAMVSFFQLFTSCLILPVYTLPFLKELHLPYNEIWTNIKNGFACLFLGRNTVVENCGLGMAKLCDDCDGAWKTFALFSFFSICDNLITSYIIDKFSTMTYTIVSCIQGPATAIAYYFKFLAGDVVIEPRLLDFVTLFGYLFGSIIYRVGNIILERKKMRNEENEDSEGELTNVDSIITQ", "test": "[3H]CQ uptake into Xenopus oocytes, cis-inhibition by unlabelled solute", "assay_type": "cell-based", "outline": "as §1"}, "[4]": {"biological_target": "PfCRT^Ecu1110 (Plasmodium falciparum, UniProt Q9N623, A220S/I356L/K76T/N326D)", "sequence (Q9N623 whole entry A220S/I356L/K76T/N326D)": "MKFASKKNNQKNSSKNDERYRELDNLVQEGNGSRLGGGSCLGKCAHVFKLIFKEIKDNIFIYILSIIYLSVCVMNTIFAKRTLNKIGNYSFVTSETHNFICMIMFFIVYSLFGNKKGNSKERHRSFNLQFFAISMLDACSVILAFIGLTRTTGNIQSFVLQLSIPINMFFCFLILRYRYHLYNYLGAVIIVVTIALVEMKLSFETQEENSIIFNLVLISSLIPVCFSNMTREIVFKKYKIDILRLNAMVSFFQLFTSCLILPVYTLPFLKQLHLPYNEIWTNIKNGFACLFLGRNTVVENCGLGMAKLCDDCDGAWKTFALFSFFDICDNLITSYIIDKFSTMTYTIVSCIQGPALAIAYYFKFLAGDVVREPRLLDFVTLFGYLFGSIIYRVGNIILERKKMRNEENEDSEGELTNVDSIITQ", "test": "[3H]CQ uptake into Xenopus oocytes, cis-inhibition by unlabelled solute", "assay_type": "cell-based", "outline": "as §1"}, "[5]": {"conditions": "Oocyte, mean ± SEM, SEM, read-out: Uptake of [3H]CQ (% PfCRTDd2 control), cis-inhibition, non-expressing oocytes"}, "[6]": {"conditions": "non-expressing oocytes, normalised to the oocyte type control, read-out: Uptake of [3H]CQ (% non-expressing oocyte control), cis-inhibition"}, "[7]": {"conditions": "PfCRT3D7 oocytes, normalised to the oocyte type control, read-out: Uptake of [3H]CQ (% PfCRT3D7 control), cis-inhibition"}, "[8]": {"conditions": "mean ± SEM, SEM, read-out: Uptake of [3H]CQ (% PfCRTDd2 control), cis-inhibition, PfCRT3D7"}, "[9]": {"conditions": "read-out: PfCRT-mediated [3H]CQ transport, cis-inhibition (% PfCRTDd2 control)"}, "[10]": {"conditions": "read-out: Uptake of [3H]CQ (% PfCRTDd2 control), cis-inhibition"}, "[11]": {"conditions": "read-out: Uptake of [3H]CQ (% PfCRTDd2 control), cis-inhibition, PfCRTDd2, SEM"}, "[12]": {"conditions": "read-out: [3H]CQ transport (% PfCRTDd2 control), cis-inhibition, PfCRTDd2, SEM"}, "[13]": {"conditions": "read-out: PfCRT-mediated [3H]CQ transport, cis-inhibition (% PfCRTEcu1110 control)"}, "[14]": {"conditions": "read-out: Uptake of [3H]CQ (% PfCRTDd2 control), cis-inhibition, PfCRTEcu1110, SEM"}, "[15]": {"conditions": "read-out: Uptake of [3H]CQ (% PfCRTEcu1110 control), cis-inhibition"}},
  "note": "Like-named read-outs stand apart in the source and are kept apart here.",
  "data": [
    {"smiles": "CC(C)C[C@H](N)C(=O)O", "note": "[L-leucine]", "values": [
      {"measurement": "inhibition at 500 µM", "setting": "[1]; [5]", "result": "3.2 ± 0.08", "unit": "%"},
      {"measurement": "inhibition at 1000 µM", "setting": "[1]; [5]", "result": "2.8 ± 0.07", "unit": "%"},
      {"measurement": "inhibition at 2000 µM", "setting": "[1]; [5]", "result": "2.9 ± 0.04", "unit": "%"},
      {"measurement": "inhibition at 500 µM", "setting": "[1]; [6]", "result": "100 ± 3.7", "unit": "%"},
      {"measurement": "inhibition at 1000 µM", "setting": "[1]; [6]", "result": "99 ± 4.6", "unit": "%"},
      {"measurement": "inhibition at 2000 µM", "setting": "[1]; [6]", "result": "99 ± 5.7", "unit": "%"},
      {"measurement": "inhibition at 500 µM", "setting": "[2]; [7]", "result": "98 ± 3.6", "unit": "%"},
      {"measurement": "inhibition at 1000 µM", "setting": "[2]; [7]", "result": "100 ± 4.7", "unit": "%"},
      {"measurement": "inhibition at 2000 µM", "setting": "[2]; [7]", "result": "99 ± 3.6", "unit": "%"},
      {"measurement": "inhibition at 500 µM", "setting": "[2]; [8]", "result": "3.2 ± 0.08", "unit": "%"},
      {"measurement": "inhibition at 1000 µM", "setting": "[2]; [8]", "result": "3.1 ± 0.08", "unit": "%"},
      {"measurement": "inhibition at 2000 µM", "setting": "[2]; [8]", "result": "3.8 ± 0.05", "unit": "%"},
      {"measurement": "inhibition at 500 µM", "setting": "[3]; [9]", "result": "98 ± 4.7", "unit": "%"},
      {"measurement": "inhibition at 1000 µM", "setting": "[3]; [9]", "result": "96 ± 4.2", "unit": "%"},
      {"measurement": "inhibition at 2000 µM", "setting": "[3]; [9]", "result": "98 ± 4.7", "unit": "%"},
      {"measurement": "inhibition at 500 µM", "setting": "[3]; [10]", "result": "100 ± 3.8", "unit": "%"},
      {"measurement": "inhibition at 1000 µM", "setting": "[3]; [10]", "result": "98 ± 3.1", "unit": "%"},
      {"measurement": "inhibition at 2000 µM", "setting": "[3]; [10]", "result": "100 ± 1.9", "unit": "%"},
      {"measurement": "inhibition at 500 µM", "setting": "[3]; [11]", "result": "100 ± 3.8", "unit": "%"},
      {"measurement": "inhibition at 1000 µM", "setting": "[3]; [11]", "result": "98 ± 3.1", "unit": "%"},
      {"measurement": "inhibition at 2000 µM", "setting": "[3]; [11]", "result": "100 ± 1.9", "unit": "%"},
      {"measurement": "inhibition at 500 µM", "setting": "[3]; [12]", "result": "98 ± 4.7", "unit": "%"},
      {"measurement": "inhibition at 2000 µM", "setting": "[3]; [12]", "result": "98 ± 4.7", "unit": "%"},
      {"measurement": "inhibition at 500 µM", "setting": "[4]; [13]", "result": "99 ± 5.1", "unit": "%"},
      {"measurement": "inhibition at 1000 µM", "setting": "[4]; [13]", "result": "97 ± 3.1", "unit": "%"},
      {"measurement": "inhibition at 2000 µM", "setting": "[4]; [13]", "result": "99 ± 2.1", "unit": "%"},
      {"measurement": "inhibition at 500 µM", "setting": "[4]; [14]", "result": "33 ± 1.6", "unit": "%"},
      {"measurement": "inhibition at 1000 µM", "setting": "[4]; [14]", "result": "32 ± 1.3", "unit": "%"},
      {"measurement": "inhibition at 2000 µM", "setting": "[4]; [14]", "result": "33 ± 1.5", "unit": "%"},
      {"measurement": "inhibition at 500 µM", "setting": "[4]; [15]", "result": "102 ± 4.2", "unit": "%"},
      {"measurement": "inhibition at 1000 µM", "setting": "[4]; [15]", "result": "98 ± 4.2", "unit": "%"}
    ]}
  ]
}
